Key:
[1] = cited from earlier work
VEGF-A = conditions: wet AMD patients; cited from earlier work
C5 = molecular target: T1, C5 (Homo sapiens, UniProt P01031); conditions: intravitreal injections, Phase 2/3 GATHER1; cited from earlier work
T1 construct: host or cells: endogenous C5 of study patients

HUVECs = assay: H2O2-induced tubule formation in HUVECs co-cultured with ARPE-19 cells (Calcein AM); type: cell-based, human; conditions: 200 μM H2O2; 10 μg/mL NPs or 5 μg/mL bevacizumab; vs positive control
Experimental: Under oxidative stress induced by 200 μM H2O2, ARPE-19 cells were co-cultured with human umbilical vein endothelial cells (HUVECs) to investigate the influence of H2O2 and drug-loaded PDA NPs on the development of the three-dimensional capillary structure. Exposure to H2O2 induced secretion of VEGF and tubule formation. Cells were then incubated with 5 μg/mL native bevacizumab control or 10 μg/mL NPs with and without anti-VEGF. […] The reaction of PDA NPs with H2O2 also simultaneously degraded (FIG. 6B) and triggered drug release (FIG. 7), favorable for spatiotemporal control of release at disease sites.

C3 = molecular target: T2, C3 (Homo sapiens, UniProt P01024); conditions: intravitreal injection, Phase 2 FILLY; cited from earlier work
T2 construct: host or cells: endogenous C3 of study patients
T2 sequence (P01024 23-667 limits assumed): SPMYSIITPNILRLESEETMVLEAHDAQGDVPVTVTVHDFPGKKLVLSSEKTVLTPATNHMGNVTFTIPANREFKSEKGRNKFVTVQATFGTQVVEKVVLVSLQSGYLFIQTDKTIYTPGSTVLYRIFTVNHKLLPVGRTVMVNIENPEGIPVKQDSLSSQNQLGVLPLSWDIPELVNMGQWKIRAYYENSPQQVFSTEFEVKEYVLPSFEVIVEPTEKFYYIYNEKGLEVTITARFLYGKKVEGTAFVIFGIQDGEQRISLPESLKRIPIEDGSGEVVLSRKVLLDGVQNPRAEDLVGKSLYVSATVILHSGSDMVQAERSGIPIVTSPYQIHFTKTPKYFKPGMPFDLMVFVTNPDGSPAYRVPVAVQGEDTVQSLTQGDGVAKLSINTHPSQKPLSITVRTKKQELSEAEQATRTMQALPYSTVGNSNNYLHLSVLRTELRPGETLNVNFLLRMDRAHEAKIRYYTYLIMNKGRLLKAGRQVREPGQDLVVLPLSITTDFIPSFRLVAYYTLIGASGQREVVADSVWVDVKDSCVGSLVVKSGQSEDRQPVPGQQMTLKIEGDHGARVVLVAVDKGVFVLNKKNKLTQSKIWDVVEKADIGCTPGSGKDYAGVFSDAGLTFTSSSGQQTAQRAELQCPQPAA
T2 sequence (P01024 672-1663 partner limits assumed): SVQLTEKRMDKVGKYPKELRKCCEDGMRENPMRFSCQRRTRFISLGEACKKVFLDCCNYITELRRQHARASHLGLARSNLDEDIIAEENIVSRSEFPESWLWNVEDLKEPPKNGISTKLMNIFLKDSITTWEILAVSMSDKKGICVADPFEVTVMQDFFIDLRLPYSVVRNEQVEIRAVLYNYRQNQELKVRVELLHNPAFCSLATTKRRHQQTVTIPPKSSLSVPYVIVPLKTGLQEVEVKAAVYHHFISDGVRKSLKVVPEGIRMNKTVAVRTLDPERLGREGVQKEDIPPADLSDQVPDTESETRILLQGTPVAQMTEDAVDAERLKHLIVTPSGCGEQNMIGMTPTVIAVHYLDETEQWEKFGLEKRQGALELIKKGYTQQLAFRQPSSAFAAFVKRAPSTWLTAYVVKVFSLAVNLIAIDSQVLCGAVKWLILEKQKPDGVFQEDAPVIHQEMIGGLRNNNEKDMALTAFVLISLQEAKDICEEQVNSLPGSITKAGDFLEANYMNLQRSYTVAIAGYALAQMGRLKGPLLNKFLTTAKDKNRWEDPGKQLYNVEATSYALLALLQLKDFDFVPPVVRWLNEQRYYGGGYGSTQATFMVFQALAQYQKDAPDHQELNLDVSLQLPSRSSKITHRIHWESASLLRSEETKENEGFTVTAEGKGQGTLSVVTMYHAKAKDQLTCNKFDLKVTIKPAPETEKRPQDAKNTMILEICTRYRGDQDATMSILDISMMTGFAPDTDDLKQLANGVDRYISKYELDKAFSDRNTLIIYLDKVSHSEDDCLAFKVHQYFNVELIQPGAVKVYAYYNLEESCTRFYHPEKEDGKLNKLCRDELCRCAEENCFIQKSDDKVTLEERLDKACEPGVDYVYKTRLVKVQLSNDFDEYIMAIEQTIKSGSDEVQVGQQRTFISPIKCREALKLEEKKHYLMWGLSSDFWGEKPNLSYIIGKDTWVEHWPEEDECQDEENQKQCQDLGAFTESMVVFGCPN

Chain of VEGF-A (P15692 207-311 limits assumed): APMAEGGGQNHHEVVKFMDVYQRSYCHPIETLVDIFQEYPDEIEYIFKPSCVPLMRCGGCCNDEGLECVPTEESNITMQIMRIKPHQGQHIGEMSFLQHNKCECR
T1 sequence (P01031 19-673 limits assumed): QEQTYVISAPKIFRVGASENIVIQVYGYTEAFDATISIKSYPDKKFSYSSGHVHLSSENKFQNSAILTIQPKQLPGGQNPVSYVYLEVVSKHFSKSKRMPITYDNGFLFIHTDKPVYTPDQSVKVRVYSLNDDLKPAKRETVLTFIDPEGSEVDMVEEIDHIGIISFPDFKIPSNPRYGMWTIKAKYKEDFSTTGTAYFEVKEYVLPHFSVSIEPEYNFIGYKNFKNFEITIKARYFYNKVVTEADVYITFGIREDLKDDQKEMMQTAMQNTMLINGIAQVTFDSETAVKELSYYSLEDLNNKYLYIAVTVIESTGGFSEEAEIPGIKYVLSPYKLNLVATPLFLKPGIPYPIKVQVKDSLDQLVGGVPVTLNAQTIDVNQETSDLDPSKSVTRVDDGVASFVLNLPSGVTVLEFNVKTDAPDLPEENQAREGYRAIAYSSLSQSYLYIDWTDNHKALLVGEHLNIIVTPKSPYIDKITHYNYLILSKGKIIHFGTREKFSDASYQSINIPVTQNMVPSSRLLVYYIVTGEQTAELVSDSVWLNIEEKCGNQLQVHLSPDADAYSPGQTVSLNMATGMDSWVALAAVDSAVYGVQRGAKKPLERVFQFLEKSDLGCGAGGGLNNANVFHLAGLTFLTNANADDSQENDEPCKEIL
T1 sequence (P01031 678-1676 limits assumed): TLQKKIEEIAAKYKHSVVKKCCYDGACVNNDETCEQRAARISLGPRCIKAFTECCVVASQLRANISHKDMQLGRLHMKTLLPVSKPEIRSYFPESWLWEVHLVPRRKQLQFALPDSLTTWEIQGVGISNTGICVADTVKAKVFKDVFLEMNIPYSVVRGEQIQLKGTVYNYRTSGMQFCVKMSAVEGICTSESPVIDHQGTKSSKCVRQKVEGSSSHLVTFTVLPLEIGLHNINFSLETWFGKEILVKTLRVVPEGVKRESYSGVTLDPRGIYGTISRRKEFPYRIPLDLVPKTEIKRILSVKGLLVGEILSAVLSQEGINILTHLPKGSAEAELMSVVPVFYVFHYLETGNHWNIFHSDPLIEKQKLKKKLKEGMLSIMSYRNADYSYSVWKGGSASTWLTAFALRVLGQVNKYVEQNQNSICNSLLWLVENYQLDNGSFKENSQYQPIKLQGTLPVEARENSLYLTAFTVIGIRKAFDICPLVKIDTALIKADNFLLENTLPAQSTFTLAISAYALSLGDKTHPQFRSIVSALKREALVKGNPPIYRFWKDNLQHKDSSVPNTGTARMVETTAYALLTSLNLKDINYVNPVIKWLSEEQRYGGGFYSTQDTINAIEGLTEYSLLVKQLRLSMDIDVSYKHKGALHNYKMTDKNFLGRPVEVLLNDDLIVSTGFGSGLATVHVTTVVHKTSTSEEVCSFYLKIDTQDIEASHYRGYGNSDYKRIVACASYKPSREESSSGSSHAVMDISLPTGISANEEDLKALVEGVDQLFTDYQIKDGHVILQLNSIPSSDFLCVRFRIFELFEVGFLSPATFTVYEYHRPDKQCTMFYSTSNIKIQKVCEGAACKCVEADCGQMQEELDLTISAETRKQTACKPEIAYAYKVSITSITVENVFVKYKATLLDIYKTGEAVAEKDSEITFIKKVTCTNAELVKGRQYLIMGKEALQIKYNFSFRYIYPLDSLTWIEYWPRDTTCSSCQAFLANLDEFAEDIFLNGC

Q: For C=CC1=C(C)c2cc3[n-]c(cc4[n-]c(cc5nc(cc1n2)C(C)=C5C=C)c(C)c4CCC(=O)O)c(CCC(=O)O)c3C.[Fe+2] [Heme], which aqueous solubility [1] is on record?
A: insoluble in aqueous solution

Q: Which “patients with improved vision” value (VEGF-A) does the source give for “RAN: monoclonal antibody fragment with strong affinity to VEGF-A” here?
A: 29%-40%

Q: With avacincaptad pegol as the compound, how does the GA growth rate (C5) read?
A: significantly reduced GA growth rate

Q: With “bevacizumab: a monoclonal antibody that inhibits VEGF-A” as the compound, how does the “tubule formation in HUVECs” value (HUVECs) read?
A: significant decrease

Q: For pegcetacoplan, which GA growth rate (C3) is on record?
A: significantly reduced GA growth rate

From patent publication US20250009755A1, “COMPOSITIONS AND METHODS FOR THE TREATMENT OF OCULAR DISEASES AND INJURIES” (Ohio State Innovation Foundation, priority 2021, published 2025)
